Experimental findings from patent US8680113B2, “BMI-1 protein expression modulators” (PTC Therapeutics, Inc., priority 2008, dated 2014) are described below.

Experiment [1] relates to Bmi-1. As to the kind of experiment: Cell Model Assay: Bmi-1 expression in K562. Conditions: K562 (chronic myelogenous leukemia). It counts as cell-based. On the procedure:
(§1) Using assay conditions known to those skilled in the art, the ability of the compounds described herein to reduce Bmi-1 expression in HT1080 (fibrosarcoma), U87-MG (glioblastoma), T98G (glioblastoma), K562 (chronic myelogenous leukemia) and KG1 (acute myelogenous leukemia) cell lines was tested (at test compound concentrations calculated from the ELISA assay data shown in Example 1) compared to puromycin as a control to provide the EC50 values shown in Table 2. The term “ND” means that data was not determined.

The test system of experiment [2] is Bmi-1. As to the kind of experiment: Cell Model Assay: Bmi-1 expression in KG1. In kind it is cell-based. Particulars: KG1 (acute myelogenous leukemia). Here is the method:
as §1

Experiment [3] deals with Bmi-1. As to the kind of experiment: Sandwich ELISA Assay (Bmi-1 ELISA in HT-1080 cells). In kind it is cell-based, human. An outline of the steps: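 Lysate Bmi-1 was quantified against a recombinant GST-Bmi-1 standard (0-8000 pg/mL) by sandwich ELISA read at OD450 with OD570 reference. The ELISA used mouse monoclonal capture, rabbit anti-Bmi-1, HRP anti-rabbit IgG and TMB. Before lysis, HT-1080 cells seeded at 8000/well were exposed to compounds for 40-48 h at 37°C with 0.5% final DMSO.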

Experiment [4] deals with Bmi-1. Kind of experiment: Cell Model Assay: Bmi-1 expression in HT1080. It counts as cell-based, human. Particulars: HT1080 (fibrosarcoma). Here is the method:
as §1

Experiment [5] relates to Bmi-1. As to the kind of experiment: Cell Model Assay: Bmi-1 expression in U87-MG. It counts as cell-based. Conditions: U87-MG (glioblastoma). On the procedure: as §1
Experiment [6] concerns Bmi-1. Kind of experiment: Cell Model Assay: Bmi-1 expression in T98G. It counts as cell-based. Conditions: T98G (glioblastoma). On the procedure:
as §1

A further experiment concerns MCL-Rec1. Kind of experiment: Mantle Cell Lymphoma Assay: cytotoxicity, Rec-1. In kind it is cell-based. Particulars: 72 hrs in culture. An excerpt: (§2) MCL cell lines Jeko, Mino, and Rec-1 were provided by American Type Culture Collection: The Bioresource Center (Manassas, Va.). […] Carlsbad, Calif.) in T-75 culture flasks. Cell concentration was maintained between 2 to 3×10^5 cells/mL. Early passage cells (passages 2-4) were used for all experiments. Ficoll-Histopaque density sedimentation (Sigma Aldrich) was used for separation of debris and purification of cell lines prior to experiments. […] The cytotoxic effect of test compounds on the MCL-cell lines was assessed by measuring cell concentration and cell viability using a Beckman Coulter Vi-Cell Counter. Controls and treated cells were harvested and counted at day 3.

The next experiment concerns MCL-Jeko. Kind of experiment: Mantle Cell Lymphoma Assay: cytotoxicity, Jeko. It counts as cell-based. Particulars: 72 hrs in culture.
Description: as §2

Another experiment concerns MCL-Mino. Kind of experiment: Mantle Cell Lymphoma Assay: cytotoxicity, Mino. In kind it is cell-based. Particulars: 72 hrs in culture.
Description: as §2

Another experiment deals with MM cell line. As to the kind of experiment: Multiple Myeloma Assay. In kind it is cell-based. Conditions: 72 hrs in culture.

The EC50 is the midpoint of the concentration-response curve. Read a low EC50 as greater potency. As a reminder, the IC50 is the concentration that inhibits the measured activity by half. A low value points to greater potency. In the case of `Cc1nc2ccc(Cl)cn2c1-c1csc(Nc2ccc(I)cc2)n1` [Cpd 29, 4-(6-chloro-2-methylimidazo[1,2-a]pyridin-3-yl)-N-(4-iodophenyl)thiazol-2-amine], the EC50 is 5 nM in the experiment with Bmi-1 [1] and 304 nM with Bmi-1 [2]. In the experiment on Bmi-1 [3], this compound returned an IC50 below 500 nM.
On to `Cc1nc2ccc(Cl)cn2c1-c1csc(Nc2ccc3c(c2)OCO3)n1` [Cpd 30, N-(benzo[d][1,3]dioxol-5-yl)-4-(6-chloro-2-methylimidazo[1,2-a]pyridin-3-yl)thiazol-2-amine], for which the EC50 in the experiment on Bmi-1 [1] was below 4 nM; in the experiment on Bmi-1 [4], 4 nM; in the experiment with Bmi-1 [2], 48 nM. This compound also displayed an IC50 with Bmi-1 [3] below 500 nM.
Turning to `Cc1nc2ncccn2c1-c1csc(Nc2ccc(I)cc2)n1` [Cpd 39, N-(4-iodophenyl)-4-(2-methylimidazo[1,2-a]pyrimidin-3-yl)-1,3-thiazol-2-amine], the EC50 was below 4 nM with Bmi-1 [5], 5 nM in the experiment on Bmi-1 [4] and below 4 nM with Bmi-1 [6]. In addition, in the experiment with Bmi-1 [3], the IC50 was below 500 nM.
One may read the viability as a per cent measure of how many cells are alive, often set against a control. Take `COCCOc1cc(Br)c(Nc2nc(-c3cnc4ccc(Cl)cn34)cs2)c(Br)c1` [Cpd 134, 4-(6-chloroimidazo[1,2-a]pyridin-3-yl)-N-[2,6-dibromo-4-(2-methoxyethoxy)phenyl]-1,3-thiazol-2-amine]: the viability at 0.004 µM in the experiment on MCL-Rec1 (Homo sapiens, Rec1, dose 0.004 μM, read-out: Cell Viability, MCL-Rec1) was 89.43 ± 0.18%; with MCL-Jeko (dose 0.004 μM, read-out: Cell Viability, MCL-Jeko), 94.1 ± 0.23%; in the experiment with MCL-Mino (Homo sapiens, MINO, dose 0.004 μM, read-out: Cell Viability, MCL-Mino), 84.8 ± 0.7%; in the experiment on MM cell line (dose 0.004 μM), 91.17 ± 0.43%. Further, the viability at 0.037 µM was found to be 88.9 ± 1% in the experiment with MCL-Rec1 (Homo sapiens, Rec1, dose 0.037 μM, read-out: Cell Viability, MCL-Rec1); 94.37 ± 0.18% with MCL-Jeko (dose 0.037 μM, read-out: Cell Viability, MCL-Jeko); 86.2 ± 0.8% in the experiment on MCL-Mino (Homo sapiens, MINO, dose 0.037 μM, read-out: Cell Viability, MCL-Mino); 90.27 ± 0.1% in the experiment on MM cell line (dose 0.037 μM). Besides, the viability at 0.11 µM turned out to be 90.2 ± 0.63% in the experiment on MCL-Rec1 (Homo sapiens, Rec1, dose 0.11 μM, read-out: Cell Viability, MCL-Rec1); 93.77 ± 0.15% with MCL-Jeko (dose 0.11 μM, read-out: Cell Viability, MCL-Jeko); 84.6 ± 0.5% in the experiment on MCL-Mino (Homo sapiens, MINO, dose 0.11 μM, read-out: Cell Viability, MCL-Mino); 87.93 ± 0.5% with MM cell line (dose 0.11 μM). Further, the viability at 0.33 µM in the experiment on MCL-Rec1 (Homo sapiens, Rec1, dose 0.33 μM, read-out: Cell Viability, MCL-Rec1) is 88.63 ± 0.24%; with MCL-Jeko (dose 0.33 μM, read-out: Cell Viability, MCL-Jeko), 93.67 ± 0.13%; in the experiment on MCL-Mino (Homo sapiens, MINO, dose 0.33 μM, read-out: Cell Viability, MCL-Mino), 83.8 ± 0.2%; with MM cell line (dose 0.33 μM) it was 86.1 ± 0.31%. Also, the viability at 1 µM in the experiment on MCL-Rec1 (Homo sapiens, Rec1, dose 1 μM, read-out: Cell Viability, MCL-Rec1) was determined as 88.43 ± 0.48%; in the experiment with MCL-Jeko (dose 1 μM, read-out: Cell Viability, MCL-Jeko) it was 93.87 ± 0.06%; with MCL-Mino (Homo sapiens, MINO, dose 1 μM, read-out: Cell Viability, MCL-Mino) it was 81.4 ± 0.8%; in the experiment on MM cell line (dose 1 μM) it was 83.47 ± 0.46%. Further, the viability at 3 µM amounted to 86.67 ± 0.84% with MCL-Rec1 (Homo sapiens, Rec1, dose 3 μM, read-out: Cell Viability, MCL-Rec1); 92.4 ± 0.22% in the experiment on MCL-Jeko (dose 3 μM, read-out: Cell Viability, MCL-Jeko); 79 ± 0.8% in the experiment with MCL-Mino (Homo sapiens, MINO, dose 3 μM, read-out: Cell Viability, MCL-Mino); 76.5 ± 1.48% with MM cell line (dose 3 μM). The “Cell Concentration, MCL-Rec1” value in the experiment on MCL-Rec1 (dose 0.004 μM) is 0.84 ± 0.02 ×10^6; with MCL-Rec1 (dose 0.037 μM), 0.86 ± 0.02 ×10^6; in the experiment on MCL-Rec1 (dose 0.11 μM) it was 0.90 ± 0.01 ×10^6; with MCL-Rec1 (dose 0.33 μM), 0.85 ± 0.02 ×10^6; in the experiment on MCL-Rec1 (dose 1 μM), 0.78 ± 0.03 ×10^6; with MCL-Rec1 (dose 3 μM) it was 0.73 ± 0.02 ×10^6. For the same compound, the “Cell Concentration, MCL-Jeko” value is recorded as 2.11 ± 0.04 ×10^6 in the experiment with MCL-Jeko (dose 0.004 μM); 2.11 ± 0.03 ×10^6 in the experiment with MCL-Jeko (dose 0.037 μM); 1.97 ± 0.11 ×10^6 in the experiment on MCL-Jeko (dose 0.11 μM); 1.95 ± 0.02 ×10^6 in the experiment with MCL-Jeko (dose 0.33 μM); 1.82 ± 0.05 ×10^6 in the experiment with MCL-Jeko (dose 1 μM); 1.81 ± 0.02 ×10^6 in the experiment with MCL-Jeko (dose 3 μM). The “Cell Concentration, MCL-Mino” value in the experiment with MCL-Mino (dose 0.004 μM) was 0.63 ± 0.01 ×10^6; in the experiment on MCL-Mino (dose 0.037 μM), 0.65 ± 0.01 ×10^6; in the experiment with MCL-Mino (dose 0.11 μM), 0.65 ± 0.01 ×10^6; in the experiment on MCL-Mino (dose 0.33 μM) it was 0.59 ± 0.01 ×10^6; with MCL-Mino (dose 1 μM), 0.56 ± 0.02 ×10^6; in the experiment with MCL-Mino (dose 3 μM), 0.47 ± 0.02 ×10^6. The “Cell Concentration, MM cell line” value in the experiment with MM cell line (dose 0.004 μM) was 1.36 ± 0.01 ×10^6; in the experiment with MM cell line (dose 0.037 μM) it was 1.33 ± 0.01 ×10^6; in the experiment on MM cell line (dose 0.11 μM), 1.28 ± 0.01 ×10^6; in the experiment on MM cell line (dose 0.33 μM) it was 1.18 ± 0.04 ×10^6; with MM cell line (dose 1 μM) it was 1.06 ± 0.01 ×10^6; in the experiment with MM cell line (dose 3 μM) it was 0.75 ± 0.03 ×10^6. The compound further came in with an IC50 with Bmi-1 [3] below 500 nM.
